Measurements published in patent US11590110B2, “Compositions and methods for reactivating latent immunodeficiency virus using a GSK-3 inhibitor” (priority 2017, dated 2023).

Columns and labels:
CD4+ T cells [1] = assay: Example 5: cytokines release assay (V-PLEX pro-inflammatory panel); type: cell-based, human; settings: 48 hours; culture supernatant of CD4+ T cells
Protocol: Supernatant was collected from the treated cell cultures described above and stored at −80° C. for later analysis. Supernatant cytokine levels were determined using a V-PLEX Proinflammatory Panel 1 (human) Kit (#K15049D-1) and a V-PLEX IL-17A Gen. B (human) (#K151WMD) from Meso Scale Discovery, following the manufacturer's protocol. The assay was done on undiluted supernatant samples in order to increase the sensitivity of the assay.

CD4+ T cells [2] = assay: Example 5: surface expression of activation markers CD69 and CD25, flow cytometry; type: cell-based, human; settings: 48 hours
Protocol: Freshly isolated PBMCs or CD4^+ T cells were stained for viability, using the fixable viability dye Zombie violet (1:50, Biolegend) according to the manufacturer's recommendation. Surface staining was performed with the following antibodies at 1:100 dilutions: CD3-PE-Cy7, CD4-APC-Cy7, CD69-FITC, CD25-PE (all 1:100, Biolegend), and Glut-1-Ax647 (BD Bioscience, 566580) in staining buffer for 20 min on ice and cells were fixed in 1% PFA-containing PBS. All flow analysis was performed on the LSRII (BD Biosciences) using FlowJo software (v.10.4.2). Color compensations were performed using single-stained samples for each of the fluorochromes used. Data were analyzed using FlowJo software (TreeStar, San Carlos, Calif.).

[3] = system: HIV-specific CD8+ T cells; assay: Example 5: granzyme B cytotoxicity assay and infected CD4+ T-cell elimination (ICE); type: cell-based, human; settings: 1 μM for 6 days
Protocol: PBMCs were co-incubated with HIVSF162-infected autologous CD4^+ T-cell targets (E:T 25:1)+/−tideglusib at a final concentration of […] in 96 deep (1 mL) well plates for 6 days. As before, cultured day 6 cells were then labeled with immuno-magnetic beads (CD8 T-cell Isolation Kit II, Miltenyi Biotec) prior to negative selection of CD8^+ T-cells by magnetic automated cell sorting (ref Migueles et al., 2008, 2009). Cytotoxic responses were measured against LIVE/DEAD Fixable Violet Stain (Molecular Probes, Invitrogen Detection Technologies, Eugene, Oreg., USA)-labeled HIVSF162-infected or uninfected autologous CD4^+ T-cell targets in assays examining GrB target cell activity and infected CD4^+ T-cell elimination (ICE) as previously reported (ref Migueles et al., 2008, 2009). Cells were analyzed on a FACSAria multi-laser cytometer (Becton-Dickinson) with FACSDiva software. Gates were drawn on labeled CD4^+ T-cell targets and 5,000-15,000 events were collected. Color compensations were performed using single-stained samples for each of the fluorochromes used. Data were analyzed using FlowJo software (TreeStar, San Carlos, Calif.).

CD4+ T cells [4] = assay: Example 5: basal and compensatory glycolysis, Seahorse glycolytic rate assay; type: cell-based, human; settings: 1 μM; 24 hours
Protocol: ECAR was determined using the Seahorse SF Glycolytic Rate Assay Kit (Agilent, 103344-100) and a Seahorse XF96 Extracellular Flux Analyzer (Seahorse Bioscience). Resting (2×10^5 per well) were seeded onto Cell-Tak-coated wells (354240; Corning) in buffered Seahorse XF RPMI medium (Agilent, 103576-100) supplemented with 10 mM glucose, 2 mM L-glutamine, 1 mM pyruvate and 5 mM HEPES (pH 7.4). Measurements were obtained under basal conditions and after adding 0.5 μM rotenone/antimycin A (103015-100; Seahorse Bioscience), and 2-deoxy-d-glucose (2-DG) at a final well concentration of 50 mM (Agilent Technologies). Basal glycolysis and Proton Efflux Rate (PER) were calculated according to. Lactate measurements were detected using the Cayman L-Lactate Assay Kit (Cayman Chemical, 70010) In brief, 24 hours post treatment, supernatant from 200.000 primary resting and activated CD4^+ T cells was harvested and measured according to the manufacturer's recommendation.

[5] = system: patient-derived CD4+ T cells; assay: Example 2: viability of patient-derived CD4+ T cells (Zombie Violet, flow cytometry); type: cell-based, human; settings: 48 h incubation
Protocol: Following treatment with Tideglusib, the CD4^+ T cells were spun down and stained with the cell-death marker Zombie Violet (BioLegend). Briefly, cells were harvested 48 hours after LRA treatment, incubated with the Zombie dye for 15 minutes at room temperature, than washed and fixed with 1% PFA for 30 minutes; then washed again and analyzed via flow cytometer. Percentage of live (Zombie negative (−)) T Cells (CD3+) was normalized to the DMSO-treated control (DMSO or “untreated”=1).

[6] = system: primary CD4+ T cells isolated from fresh human tonsils; assay: CD69 transcripts in primary CD4+ T cells from fresh human tonsils; type: cell-based; settings: 2-day treatment
patient CD4+ T cells = assay: Example 7: viability of patient CD4+ T cells, Cell-titer blue; settings: 48 h
CD8+ T cells = assay: Example 5: CD8 T-cell viability and cytotoxic effector functions; type: cell-based, human
Protocol: After drug treatment, human PBMCs were cultured in complete RPMI in the presence of CD107a-BV650 (1:50, 328637, BioLegend) or CD107a-FITC antibodies (1:50, 555800, BD Bioscience) and PMA/ionomycin (50 ng/ml and 1 uM) dor 3.5 hours, adding Brefeldin A and Monensin (eBioscience) for the last hour. Cells were subsequently stained for viability using the viability dyes eFluor 506, (eBioscience) according to the provided protocol. After surface marker staining with the following antibodies (all at 1:100 dilution): CD3-APC-H7 (560176; BD Biosciences), CD8-V450 (560347; BD Biosciences), CD45RA-APC (17-0458; eBioscience), and CCR7-PE-Cy7 (557648; BD Biosciences), cells were permeabilized and fixed using the Foxp3/Transcription Factor Fixation/Permeabilization Concentrate and Diluent kit (eBioscience). Intracellular staining was performed with IFN-γ-PerCP-Cy5.5 antibody (1:100, 560704, BD Bioscience) in FOXP3 perm/wash buffer for 1 h at 4° C. After washing and fixation of the cells in 1% paraformaldehyde/PBS, cells were analyzed by flow cytometry. Final data stems from having gated on CD8hi- and CD8lo-expressing T cells.

[7] = pre-treatment 1 μM 48 hours, then PMA/ionomycin

O=c1sn(-c2cccc3ccccc23)c(=O)n1Cc1ccccc1 [Tideglusib, 4-benzyl-2-(naphthalen-1-yl)-1,2,4-thiadiazolidine-3,5-dione]
production and release of pro-inflammatory cytokines (CD4+ T cells [1]): does not induce T cell activation or cytokine production
surface expression of the activation markers CD69 or CD25 (CD4+ T cells [2]): no increase
CD8+ T-mediated infected CD4+ T-cell elimination (ICE) ([3]; 1 hour with infected CD4+ T targets): did not alter production of granzyme B (GrB) or prevent CD8^+ T-mediated infected CD4^+ T-cell elimination (ICE)
production of granzyme B (GrB) ([3]; PBMCs of HIV-positive progressors): did not alter production of granzyme B
basal glycolysis, mean value (CD4+ T cells [4]): 17.43 pmol/min
compensatory glycolysis, response to Rot/AA (CD4+ T cells [4]): did not result in an increase
percentage of viable CD4+ T cells vs untreated control [5]: Substantially all of the cells remained viable
expression of CD69 transcripts [6]: reduces expression of CD69 transcripts
toxicity based on cell-titer blue testing (patient CD4+ T cells): Neither tideglusib nor SB216763 induced toxicity
viability of CD8+ T cells (CD8+ T cells; 48 hours): did not reduce viability
IFN-γ production in CD8+ T cells (CD8+ T cells; [7]): increase in IFN-γ production
surface expression of CD107a in CD8+ T cells (CD8+ T cells; [7]): increased surface expression of CD107a
